According to US9212163B2, “Pesticidal compositions and processes related thereto” (Dow AgroSciences LLC, priority 2012, dated 2015):

Each compound was assayed on Beet Armyworm (BAW) (Spodoptera exigua) (assay: Bioassay on Beet Armyworm (BAW), 128-well diet tray assay). Settings: Table 3: Assay Results Part 1.
Type: in vivo
Description: Certain molecules disclosed in this document were tested against BAW, CEW and CL using procedures described in the following examples. In the reporting of the results, the “BAW & CEW & CL Rating Table” was used (See Table Section).
Bioassays on BAW (Spodoptera exigua)
Bioassays on BAW were conducted using a 128-well diet tray assay. One to five second instar BAW larvae were placed in each well (3 mL) of the diet tray that had been previously filled with 1 mL of artificial diet to which 50 μg/cm^2 of the test compound (dissolved in 50 μL of 90:10 acetone-water mixture) had been applied (to each of eight wells) and then allowed to dry. Trays were covered with a clear self-adhesive cover, and held at 25° C., 14:10 light-dark for five to seven days. Percent mortality was recorded for the larvae in each well; activity in the eight wells was then averaged. The results are indicated in the tables entitled “Table 3: Assay Results Part 1” and “Table 4: Assay Results Part 2” (See Table Section).

SMILES | BAW Rating
FC(F)(F)C(/C=C/c1ccc(-n2cncn2)cc1)c1cc(Cl)cc(Cl)c1 (stereo not shown) [DC1, (E)-1-(4-(3-(3,5-Dichlorophenyl)-4,4,4-trifluorobut-1-en-1-yl)phenyl)-1H-1,2,4-triazole] | A (50-100)
Cc1cc(/C=C/C(c2cc(Cl)c(Cl)c(Cl)c2)C(F)(F)F)ccc1C(=O)NCC(=O)NCC(F)(F)F (stereo not shown) [AC78] | A (50-100)
Cc1cc(/C=C/C(c2cc(Cl)cc(Cl)c2)C(F)(F)F)ccc1C(=O)NNc1ccccc1F (stereo not shown) [AC17] | A (50-100)
O=C(NC1CS(=O)(=O)C1)c1ccc(/C=C/C(c2cc(Cl)cc(Cl)c2)C(F)(F)F)cc1F (stereo not shown) [AC83, (E)-4-(3-(3,5-Dichlorophenyl)-4,4,4-trifluorobut-1-en-1-yl)-N-(1,1-dioxidothietan-3-yl)-2-fluorobenzamide] | A (50-100)
O=C(CNC(=O)c1ccc(/C=C/C(c2cc(Cl)c(F)c(Cl)c2)C(F)(F)F)cc1F)NCC(F)(F)F (stereo not shown) [AC68] | A (50-100)
Fc1cc(/C=C/C(c2cc(Cl)cc(Cl)c2)C(F)(F)F)ccc1-n1cncn1 (stereo not shown) [DC48] | A (50-100)
Cc1cc(/C=C/C(c2cc(Cl)cc(Cl)c2)C(F)(F)F)ccc1C(=O)NCc1ccc(Cl)cc1 (stereo not shown) [AC48] | A (50-100)
CCNC(=O)NCc1ccc(/C=C/C(c2cc(Cl)c(Cl)c(Cl)c2)C(F)(F)F)cc1Br (stereo not shown) [CC33] | A (50-100)
O=C(NC1CSC1)c1ccc(/C=C/C(c2cc(Cl)c(F)c(Cl)c2)C(F)(F)F)cc1F (stereo not shown) [AC67] | A (50-100)
O=C(CNC(=S)c1ccc(/C=C/C(c2cc(Cl)c(Cl)c(Cl)c2)C(F)(F)F)cc1Br)NCC(F)(F)F (stereo not shown) [AC91, (E)-2-(2-Bromo-4-(4,4,4-trifluoro-3-(3,4,5-trichlorophenyl)but-1-en-1-yl)phenylthioamido)-N-(2,2,2-trifluoroethyl)acetamide] | A (50-100)
FC(F)(F)C(/C=C/c1ccc(CNC(=S)C2CC2)c(Cl)c1)c1cc(Cl)c(Cl)c(Cl)c1 (stereo not shown) [CC20] | A (50-100)
FC(F)(F)C(/C=C/c1ccc(-n2cncn2)c(Cl)c1)c1cc(Cl)cc(Cl)c1 (stereo not shown) [DC50] | A (50-100)
O=C(NCc1ccc(Cl)nc1)c1ccc(/C=C/C(c2cc(Cl)c(F)c(Cl)c2)C(F)(F)F)cc1Br (stereo not shown) [AC63] | A (50-100)
O=C(NC1CCc2cc(/C=C/C(c3cc(Cl)c(Cl)c(Cl)c3)C(F)(F)F)ccc21)C1CC1 (stereo not shown) [BC6] | A (50-100)
Fc1ccc(C(/C=C/c2ccc(-n3cncn3)cc2)C(F)(F)F)cc1 (stereo not shown) [DC7] | A (50-100)
O=C(CC(F)(F)F)NCc1ccc(/C=C/C(c2cc(Cl)cc(Cl)c2)C(F)(F)F)cc1Cl (stereo not shown) [CC9] | A (50-100)
COC(/C=C/c1ccc(-n2cncn2)cc1)(c1cc(Cl)cc(Cl)c1)C(F)(F)F (stereo not shown) [DC70, (E)-1-(4-(3-(3,5-Dichlorophenyl)-4,4,4-trifluoro-3-methoxybut-1-en-1-yl)phenyl)-1H-1,2,4-triazole] | A (50-100)
Cc1cc(/C=C/C(c2cc(Cl)cc(Cl)c2)C(F)(F)F)ccc1-n1cncn1 (stereo not shown) [DC62] | A (50-100)
O=C(CNC(=O)c1ccc(/C=C/C(c2cc(Cl)c(F)c(Cl)c2)C(F)(F)F)cc1Br)NCC(F)(F)F (stereo not shown) [AC79, (E)-2-Bromo-4-(3-(3,5-dichloro-4-fluorophenyl)-4,4,4-trifluorobut-1-en-1-yl)-N-(2-oxo-2-((2,2,2-trifluoroethyl)amino)ethyl)benzamide] | A (50-100)
Cc1cc(/C=C/C(c2cc(Cl)c(Cl)c(Cl)c2)C(F)(F)F)cc(C#N)c1-n1cncn1 (stereo not shown) [DC45] | A (50-100)

SMILES | BAW Rating
FC(F)(F)c1cc(/C=C/C(c2cc(Cl)cc(Cl)c2)C(F)(F)F)ccc1-n1cncn1 (stereo not shown) [DC51] | A (50-100)
O=C(NCc1ccc(/C=C/C(c2cc(Cl)cc(Cl)c2)C(F)(F)F)cc1Cl)C1CC1 (stereo not shown) [CC8] | A (50-100)
Fc1cc(F)cc(C(/C=C/c2ccc(-n3cncn3)cc2)C(F)(F)F)c1 (stereo not shown) [DC8] | A (50-100)
O=C(Cn1ncc2cc(/C=C/C(c3cc(Cl)c(F)c(Cl)c3)C(F)(F)F)ccc2c1=O)NCC(F)(F)F (stereo not shown) [BC14, (E)-2-(6-(3-(3,5-Dichloro-4-fluorophenyl)-4,4,4-trifluorobut-1-en-1-yl)-1-oxophthalazin-2(1H)-yl)-N-(2,2,2-trifluoroethyl)acetamide] | A (50-100)
N#Cc1cc(/C=C/C(c2cc(Cl)cc(Cl)c2)C(F)(F)F)ccc1-n1cnc(N)n1 (stereo not shown) [DC38] | A (50-100)
Cc1cc(/C=C/C(c2cc(Cl)cc(Cl)c2)C(F)(F)F)ccc1C(=O)NCc1nnc(C2CC2)o1 (stereo not shown) [AC89, (E)-N-((5-Cyclopropyl-1,3,4-oxadiazol-2-yl)methyl)-4-(3-(3,5-dichlorophenyl)-4,4,4-trifluorobut-1-en-1-yl)-2-methylbenzamide] | A (50-100)
O=C(Cc1ccc(Cl)nc1)NCc1ccc(/C=C/C(c2cc(Cl)c(Cl)c(Cl)c2)C(F)(F)F)cc1Cl (stereo not shown) [CC14] | A (50-100)
O=C(CNC(=O)c1ccc(/C=C/C(c2cc(Cl)c(F)c(Cl)c2)C(F)(F)F)cc1[N+](=O)[O-])NCC(F)(F)F (stereo not shown) [AC98] | A (50-100)
CCc1cc(/C=C/C(c2cc(Cl)c(F)c(Cl)c2)C(F)(F)F)ccc1C(=O)NCC(=O)NCC(F)(F)F (stereo not shown) [AC80] | A (50-100)
Cc1cc(/C=C/C(c2cc(Cl)cc(Cl)c2)C(F)(F)F)ccc1C(=O)NC1CS(=O)(=O)C1 (stereo not shown) [AC13] | A (50-100)
CCc1cc(/C=C/C(c2cc(Cl)c(F)c(Cl)c2)C(F)(F)F)ccc1C(=O)NCc1ccc(Cl)nc1 (stereo not shown) [AC72] | A (50-100)
FC(F)(F)C(/C=C/c1ccc(CNc2ccccn2)c(Cl)c1)c1cc(Cl)c(Cl)c(Cl)c1 (stereo not shown) [CC43, (E)-N-(2-Chloro-4-(4,4,4-trifluoro-3-(3,4,5-trichlorophenyl)but-1-en-1-yl)benzyl)pyridin-2-amine] | A (50-100)
N#Cc1cc(/C=C/C(c2cc(Cl)c(Cl)c(Cl)c2)C(F)(F)F)ccc1-n1cnc([N+](=O)[O-])n1 (stereo not shown) [DC40, (E)-2-(3-Nitro-1H-1,2,4-triazol-1-yl)-5-(4,4,4-trifluoro-3-(3,4,5-trichlorophenyl)but-1-en-1-yl)benzonitrile] | A (50-100)
CN1CCC(NC(=O)c2ccc(/C=C/C(c3cc(Cl)c(Cl)c(Cl)c3)C(F)(F)F)cc2Br)CC1 (stereo not shown) [AC106, (E)-2-Bromo-N-(1-methylpiperidin-4-yl)-4-(4,4,4-trifluoro-3-(3,4,5-trichlorophenyl)but-1-en-1-yl)benzamide] | A (50-100)
N#Cc1cc(/C=C/C(c2cc(Cl)cc(Cl)c2)C(F)(F)F)ccc1-n1cnc([N+](=O)[O-])n1 (stereo not shown) [DC37] | A (50-100)
Cc1cc(/C=C/C(c2cc(Cl)c(Cl)c(Cl)c2)C(F)(F)F)ccc1-n1cncn1 (stereo not shown) [DC63] | A (50-100)
O=C(NC1CS(=O)(=O)C1)c1ccc(/C=C/C(c2cc(Cl)c(Cl)c(Cl)c2)C(F)(F)F)cc1Cl (stereo not shown) [AC30] | A (50-100)
Cc1cc(/C=C/C(c2cc(Cl)cc(Cl)c2)C(F)(F)F)ccc1C(=O)NC1CSC1 (stereo not shown) [AC10] | A (50-100)
Cc1cc(/C=C/C(c2cc(Cl)c(F)c(Cl)c2)C(F)(F)F)ccc1C(=O)NCC(=O)NCC(F)(F)F (stereo not shown) [AC69] | A (50-100)
Cc1cc(/C=C/C(c2cc(Cl)c(Cl)c(Cl)c2)C(F)(F)F)ccc1C(=O)NCc1cnc(Cl)s1 (stereo not shown) [AC26] | A (50-100)
